Here are results for 30 molecules from patent US12662475B2, “Difluorocyclohexyl derivatives as IL-17 modulators” (UCB BIOPHARMA SRL, priority 2020, dated 2026).

Structures are written as SMILES.

The assay concerns IL-17 induced IL-6 release from human dermal fibroblasts. Put plainly: Inhibition of IL-17A induced IL-6 release from dermal fibroblast cell line (HDF cell line assay). Type of assay: cell-based. Particulars: Incubation Time 5 h. On the procedure: Inhibition of IL-17A Induced IL-6 Release from Dermal Fibroblast Cell Line
The purpose of this assay is to test the neutralising ability to IL-17 proteins, in a human primary cell system.
The resultant IL-6 response was then measured using a homogenous time-resolved FRET kit from Cisbio. The kit utilises two monoclonal antibodies, one labelled with Eu-Cryptate (Donor) and the second with d2 or XL665 (Acceptor).
The ability of a compound to inhibit IL-17 induced IL-6 release from human dermal fibroblasts is measured in this assay.
The TrypLE was neutralised using complete medium (45 mL) and the cells were centrifuged at 300×g for 3 minutes. […] The cells were left for a minimum of three hours, at 37° C./5% CO2, to adhere to the plate.
10 μL from the aqueous dilution plate was transferred to the reagent plate containing 30 μL of the diluted cytokines, to give a 2.5% DMSO solution. The compounds were incubated with the cytokine mixtures for 1 h or 5 h at 37° C. After the incubation, 10 μL was transferred to the assay plate, to give a […] solution, then incubated for 18-20 h at 37° C./5% CO2.
In general, IC50 refers to the point on the concentration scale where inhibition reaches its midpoint. A higher IC50 goes with weaker potency. With `Cc1nonc1C(=O)N[C@H](c1nc2c(F)c(C(CC(F)(F)F)C(=O)NCC(F)F)ccc2[nH]1)C1CCC(F)(F)CC1` (mixture of isomers) [Example 36, N—[(S)-(4,4-Difluorocyclohexyl){5-[1-(2,2-difluoroethylcarbamoyl)-3,3,3-trifluoro-propyl]-4-fluoro-1H-benzimidazol-2-yl}methyl]-4-methyl-1,2,5-oxadiazole-3-carboxamide], the IC50 is 0.0316 µM.
The molecule `CC(C)n1ncnc1C(=O)N[C@H](c1nc2c(F)c([C@@H](CC(F)F)C(=O)NCC(C)(C)F)ccc2[nH]1)C1CCC(F)(F)CC1` (single isomer, unassigned) [Example 57] had an IC50 of 2.51 µM.
In turn, `Cc1nonc1C(=O)N[C@H](c1nc2c(F)c([C@H](CC(F)F)C(=O)N[C@@H](C)C(F)(F)F)ccc2[nH]1)C1CCC(F)(F)CC1` (single isomer, unassigned) [Example 44] showed an IC50 of 0.01 µM.
The value for `CC(C)n1ncnc1C(=O)N[C@H](c1nc2c(F)c([C@H](CC(C)(F)F)C(=O)NCC(C)(F)F)ccc2[nH]1)C1CCC(F)(F)CC1` (single isomer, unassigned) [Example 87] was 0.00794 µM; that for `Cc1nonc1C(=O)N[C@H](c1nc2c(F)c(C(CC(F)F)C(=O)N[C@@H](C)C(F)(F)F)ccc2[nH]1)C1CCC(F)(F)CC1` (mixture of isomers) [Example 43, N—{(S)-(4,4-Difluorocyclohexyl)[5-(3,3-difluoro-1-{[(1S)-2,2,2-trifluoro-1-methylethyl]-carbamoyl}propyl)-4-fluoro-1H-benzimidazol-2-yl]methyl}-4-methyl-1,2,5-oxadiazole-3-carboxamide] was 0.0501 µM.
Regarding `Cc1nonc1C(=O)N[C@H](c1nc2c(F)c(C(CC(F)(F)F)C(=O)NCC3CC3(F)F)ccc2[nH]1)C1CCC(F)(F)CC1` (stereo partly drawn) [Example 14, N—[(S)-(4,4-Difluorocyclohexyl)(5-{1-[(2,2-difluorocyclopropyl)methylcarbamoyl]-3,3,3-trifluoropropyl}-4-fluoro-1H-benzimidazol-2-yl)methyl]-4-methyl-1,2,5-oxadiazole-3-carboxamide], the IC50 was 0.00794 µM.
The value for `O=C(NCC(F)(F)F)[C@@H](CC(F)F)c1ccc2[nH]c([C@@H](NC(=O)C3(F)CC3)C3CCC(F)(F)CC3)nc2c1F` [Example 81, N—[(S)-(4,4-Difluorocyclohexyl){5-[(1S)-3,3-difluoro-1-(2,2,2-trifluoroethylcarbamoyl)-propyl]-4-fluoro-1H-benzimidazol-2-yl}methyl]-1-fluorocyclopropanecarboxamide] was 0.0316 µM.
In the case of `CC(C)n1ncnc1C(=O)N[C@H](c1nc2c(F)c(C(CC(F)(F)F)C(=O)NCC(C)(F)F)ccc2[nH]1)C1CCC(F)(F)CC1` (mixture of isomers) [Example 68, N—[(S)-(4,4-Difluorocyclohexyl){5-[1-(2,2-difluoropropylcarbamoyl)-3,3,3-trifluoro-propyl]-4-fluoro-1H-benzimidazol-2-yl}methyl]-2-isopropyl-1,2,4-triazole-3-carboxamide], half-maximal inhibition (IC50) required 0.0126 µM.
The value for `CC(C)n1ncnc1C(=O)N[C@H](c1nc2c(F)c([C@@H](CC(F)F)C(=O)NCC(C)(F)F)ccc2[nH]1)C1CCC(F)(F)CC1` (single isomer, unassigned) [Example 54] was 0.0794 µM.
Then `Cc1nonc1C(=O)N[C@H](c1nc2c(F)c([C@@H](CC(F)F)C(=O)N[C@H](C)C(F)(F)F)ccc2[nH]1)C1CCC(F)(F)CC1` (single isomer, unassigned) [Example 48], with 3.16 µM.
The value for `O=C(N[C@H](c1nc2c(F)c(C(CC(F)F)C(=O)NCC(F)(F)F)ccc2[nH]1)C1CCC(F)(F)CC1)c1ccccc1F` (mixture of isomers) [Example 49, N—[(S)-(4,4-Difluorocyclohexyl){5-[3,3-difluoro-1-(2,2,2-trifluoroethylcarbamoyl)-propyl]-4-fluoro-1H-benzimidazol-2-yl}methyl]-2-fluorobenzamide] was 0.0316 µM; that for `CC(C)n1ncnc1C(=O)N[C@H](c1nc2c(F)c([C@H](CC(F)F)C(=O)NCC(C)(F)F)ccc2[nH]1)C1CCC(F)(F)CC1` (single isomer, unassigned) [Example 55] was 0.00398 µM.
In turn, `CC(C)n1ncnc1C(=O)N[C@H](c1nc2c(F)c([C@@H](CC(C)(F)F)C(=O)NCC(C)(F)F)ccc2[nH]1)C1CCC(F)(F)CC1` (single isomer, unassigned) [Example 86] showed an IC50 of 6.31 µM.
The value for `Cc1nonc1C(=O)N[C@H](c1nc2c(F)c([C@H](CC(F)(F)F)C(=O)N[C@@H](C(=O)N(C)C)C(C)C)ccc2[nH]1)C1CCC(F)(F)CC1` (single isomer, unassigned) [Example 11] was 0.00398 µM; that for `Cc1nonc1C(=O)N[C@H](c1nc2c(F)c([C@H](CC(F)(F)F)C(=O)N[C@@H](C)C(F)(F)F)ccc2[nH]1)C1CCC(F)(F)CC1` (single isomer, unassigned) [Example 25] was 0.00794 µM.
The value for `Cc1nonc1C(=O)N[C@H](c1nc2c(F)c(C(CC(F)(F)F)C(=O)NCCC(F)(F)F)ccc2[nH]1)C1CCC(F)(F)CC1` (stereo partly drawn) [Example 13, N—[(S)-(4,4-Difluorocyclohexyl){4-fluoro-5-[3,3,3-trifluoro-1-(3,3,3-trifluoropropyl-carbamoyl)propyl]-1H-benzimidazol-2-yl}methyl]-4-methyl-1,2,5-oxadiazole-3-carboxamide] was 0.00501 µM; that for `CC(C)n1ncnc1C(=O)N[C@H](c1nc2c(F)c([C@H](CC(F)F)C(=O)NCC(C)(C)F)ccc2[nH]1)C1CCC(F)(F)CC1` (single isomer, unassigned) [Example 58] was 0.00794 µM; that for `CC(C)n1ncnc1C(=O)N[C@H](c1nc2c(F)c([C@H](CC(C)(F)F)C(=O)NCC(C)(F)F)ccc2[nH]1)C1CCC(F)(F)CC1` (mixture of isomers) [Example 85, N—[(S)-(4,4-Difluorocyclohexyl){5-[1-(2,2-difluoropropylcarbamoyl)-3,3-difluorobutyl]-4-fluoro-1H-benzimidazol-2-yl}methyl]-2-isopropyl-1,2,4-triazole-3-carboxamide] was 0.0126 µM.
Molecule `CCS(=O)(=O)CC[C@@H](C(=O)N1CC(F)(F)C(F)(F)C1)c1ccc2[nH]c([C@@H](NC(=O)c3nonc3C)C3CCC(F)(F)CC3)nc2c1F` (single isomer, unassigned) [Example 29] had an IC50 of 0.126 µM.
In turn, `CC(F)(F)CNC(=O)[C@H](CC(F)(F)F)c1ccc2[nH]c([C@@H](NC(=O)C3(F)CC3)C3CCC(F)(F)CC3)nc2c1F` (single isomer, unassigned) [Example 83] had an IC50 of 2 µM.
The value for `Cc1nonc1C(=O)N[C@H](c1nc2c(F)c([C@@H](CC(F)(F)F)C(=O)N[C@@H](C(=O)N(C)C)C(C)C)ccc2[nH]1)C1CCC(F)(F)CC1` (single isomer, unassigned) [Example 12] was 0.126 µM; that for `O=C(N[C@H](c1nc2c(F)c([C@H](CC(F)F)C(=O)NCC(F)(F)F)ccc2[nH]1)C1CCC(F)(F)CC1)c1ccccc1F` (single isomer, unassigned) [Example 50] was 0.01 µM.
Then `CC(F)(F)CNC(=O)C(CC(F)(F)F)c1ccc2[nH]c([C@@H](NC(=O)C3(F)CC3)C3CCC(F)(F)CC3)nc2c1F` (mixture of isomers) [Example 82, N—[(S)-(4,4-Difluorocyclohexyl){5-[1-(2,2-difluoropropylcarbamoyl)-3,3,3-trifluoro-propyl]-4-fluoro-1H-benzimidazol-2-yl}methyl]-1-fluorocyclopropanecarboxamide], with 0.0251 µM.
Then `Cc1nonc1C(=O)N[C@H](c1nc2c(F)c([C@H](CC(F)F)C(=O)NCC(F)(F)F)ccc2[nH]1)C1CCC(F)(F)CC1` (single isomer, unassigned) [Example 41], with 0.00501 µM; and `Cc1nonc1C(=O)N[C@H](c1nc2c(F)c([C@H](CC(F)(F)F)C(=O)NCC(F)F)ccc2[nH]1)C1CCC(F)(F)CC1` (single isomer, unassigned) [Example 37], with 0.0158 µM.
`O=C(N[C@H](c1nc2nc(C3(C(=O)NCC(F)(F)F)CCC(F)(F)CC3)ccc2[nH]1)C1CCC(F)(F)CC1)C1(F)CC1` [Example 78, 1-(2-{(S)-(4,4-Difluorocyclohexyl)[(1-fluorocyclopropanecarbonyl)amino]methyl}-1H-imidazo[4,5-b]pyridin-5-yl)-4,4-difluoro-N-(2,2,2-trifluoroethyl)cyclohexanecarboxamide] showed an IC50 of 0.0158 µM.
Regarding `Cc1nonc1C(=O)N[C@H](c1nc2c(F)c([C@@H](CC(F)(F)F)C(=O)NCC(F)F)ccc2[nH]1)C1CCC(F)(F)CC1` (single isomer, unassigned) [Example 38], the IC50 was 0.1 µM.
The value for `CC(C)n1ncnc1C(=O)N[C@H](c1nc2c(F)c([C@H](CC(F)(F)F)C(=O)NCC(C)(C)F)ccc2[nH]1)C1CCC(F)(F)CC1` (single isomer, unassigned) [Example 73] was 0.00631 µM; that for `CC(C)n1ncnc1C(=O)N[C@H](c1nc2c(F)c([C@H](CC(F)F)C(=O)NCC(F)(F)F)ccc2[nH]1)C1CCC(F)(F)CC1` [Example 80, N—[(S)-(4,4-Difluorocyclohexyl){5-[(1S)-3,3-difluoro-1-(2,2,2-trifluoroethylcarbamoyl)-propyl]-4-fluoro-1H-benzimidazol-2-yl}methyl]-2-isopropyl-1,2,4-triazole-3-carboxamide] was 0.00631 µM.
The value for `Cc1nonc1C(=O)N[C@H](c1nc2c(F)c([C@@H](CC(F)F)C(=O)NCC(F)(F)F)ccc2[nH]1)C1CCC(F)(F)CC1` (single isomer, unassigned) [Example 42] was 0.126 µM.
